Measured values: patent US20030175678A1, “Methods for identifying genes regulating desired cell phenotypes” (priority 2001, published 2003)

How the values were obtained:
Assay type in all cases: cell-based
[1] = system: C. fascicularis suspension culture; test: Differential induction of EGCG in Crassula fascicularis suspension culture (HPLC); conditions: B49 medium, treated on day 7 following subculture
Experimental: Differential induction of catechins in the C. fascicularis suspension culture was performed in 500 mL conical flasks containing 190 mL of either growth medium B105 (modified Gamborg's B5 medium containing 2,4-D (1 mg/L), kinetin (0.1 mg/L), coconut water (100 mL/L), glutamine (10 mM), and 3% sucrose) or a secondary metabolite production medium B49 (Gamborg's B5, 5% sucrose, no hormones), inoculated with 70 mL of 14 day old suspension culture. Cultures were grown for 14 days before harvest and processing. Further cultures grown on production medium B49 were treated using one of each of the following protocols:
(4) A 40 mL aliquot of a day 0 suspension growing on B105 medium was transferred to a 100 mL flask. On day 3, a sterile solution of 5-azacytidine (5-AC) in water was added for a final concentration of 3×10^−5 M, and the resultant mixture was incubated for 11 days. At this point the 40 mL 5-AC-treated culture was subcultured twice before inoculating 190 mL B49 production medium in a 500 mL flask with 70 mL of day 14 suspension. The culture was then treated further according to protocol (2). […]
Lyophilized biomass from 100 mL plant cell culture was extracted three times with 10 mL of boiling aqueous 0.2 M NaH2PO4 solution (total 30 mL). The combined, cooled, extracts were extracted with EtOAc (2×30 mL). The combined EtOAc extracts were then dried under a stream of nitrogen. The samples were dissolved in 50% aqueous acetonitrile at a concentration of 1.0 mg/mL; a 0.1 mL aliquot was transferred into a 0.25 mL glass insert to a 2 mL HPLC vial. The extraction procedure is scalable according to the initial volume of the plant-cell culture used to generate the biomass.
HPLC analyses of compounds in plant cell culture extracts were performed in two systems. System 1 (S1) utilized a Rainin Dynamax SD-200 pumping system, a Varian Dynamax PDA-2 diode array detector, with a Waters XTerra RP 18 (5 μm, 3.0×150 mm) column. The mobile phase was composed from 0.1% acetic acid in H2O (solvent A) and 0.1% acetic acid in acetonitrile (solvent B), at a flow rate of 0.75 mL/min: after maintaining initial conditions (A:B, 95:5) for one minute post-injection, gradient elution was accomplished in a linear fashion over 30 min (to A:B, 40:60). A total of 10 μL of each sample was injected onto the column and eluates were analyzed at a wavelength of 275 nm. System 2 (S2) utilized API-electrospray-LC-MS: a Hewlett Packard series HP1100 with a Waters Xterra RP18 (3.5 μm, 2.1×100 mm) column was used as the inlet for a Micromass Platform-LC, in the positive-ion mode. […] Compounds of interest were detected at 254 nm and as single-charged species via selected-ion monitoring in the mass spectrometer. […]

[2] = system: C. barkleyi suspension culture; test: Differential induction of catechin accumulation in Crassula barkleyi suspension culture; conditions: B49 medium, treated seven days after inoculation, sampled for 17 days
Experimental: Differential induction of catechin derivatives in the C. barkleyi suspension culture was performed in 250 mL conical flasks containing 100 mL of a secondary metabolite production medium B49 (Gamborg's B5, with 5% sucrose, and no hormones), inoculated with 16 mL of 14 day old suspension culture. The cultures were incubated under low light conditions (approximately 30 lux) at 25° C. for seven days after inoculation. Cultures were then treated using one of each of the following protocols (untreated cultures were also maintained as controls):
(2) Autoclaved aqueous 2,4-D (1 mg/L final concentration) was added;
(4) Filter-sterilized aqueous DL-phenylalanine (200 mg/L) was added;
(6) Filter-sterilized aqueous zeatin (10 μM) was added;
(7) Filter-sterilized aqueous 1-aminocyclopropane-1-carboxylic acid (10 mg/L final concentration) was added;
(8) Filter-sterilized 24-epibrassinolide (1 mg/L final concentration) was added;
(9) Incubation at a temperature of 16° C.; or (10) High light regime (approximately 160 lux).
(§1) Ten milliliter culture samples were taken at regular intervals for 17 days following the day of subculture to B49 medium. All culture samples were centrifuged for five minutes at 4000 rpm, and the cell residue was freeze-dried. Extraction, sample preparation, and HPLC analysis were performed as described in Example 1.

[3] = system: C. dejecta suspension culture; test: Differential induction of catechin accumulation in Crassula dejecta suspension culture; conditions: cultures grown on B105, added at day 7
Experimental: Differential induction of catechin derivatives in the C. dejecta suspension culture was performed in 250 mL conical flasks containing 100 mL of B105 growth medium or 100 mL of a secondary metabolite production medium B49 (Gamborg's B5, with 5% sucrose, and no hormones), inoculated with 40 mL of 21 day old suspension culture. The cultures were incubated under low light conditions (approximately 30 lux) at 25° C. Cultures were treated using one of each of the following protocols:
(1) B105 growth medium (no additions) used as is;
(3) Filter-sterilized aqueous zeatin (10 μM) was added at day 7 to a culture grown on B105 medium;
(4) B49 production medium (no additions) used as is;
as §1, with “(6) Filter-sterilized clofibrate (0.5 mM final concentration) was added at day 7 to a culture grown on B49 medium. Ten” for “Ten”, “milliliters of” for “milliliter”, “to B105 or” for “to”

Row | Compound | EGCG (mg/gdwt) two days after treatment [1] [mg/gdwt] | catechin biosynthesis and EGCG accumulation [2] | induction of catechin, gallocatechin, and EGCG [3]
1 | CCOC(=O)C(C)(C)Oc1ccc(Cl)cc1 [Clofibrate] | 89 |  | 
2 | O.O.O.O.O.O.O.O=S(=O)([O-])[O-].[Fe+2] [FeSO4.7H2O] | 90 |  | 
3 | O=C(O)c1cc(O)c(O)c(O)c1 [gallic acid] | 82 |  | 
4 | C/C(=C\CNc1ncnc2[nH]cnc12)CO [zeatin] |  | induced catechin biosynthesis and EGCG accumulation | induced catechin, gallocatechin, and EGCG
5 | CC(C)[C@@H](C)[C@@H](O)[C@H](O)[C@@H](C)[C@H]1CC[C@H]2[C@@H]3COC(=O)[C@H]4C[C@H](O)[C@H](O)C[C@]4(C)[C@H]3CC[C@]12C [24-epibrassinolide] |  | induced catechin biosynthesis and EGCG accumulation | 
6 | O=C(O)COc1ccc(Cl)cc1Cl [2,4-D, 2,4-dichlorophenoxyacetic acid] |  | suppressed catechin biosynthesis | 
